In US11319299B2, “Substituted carboxamides as inhibitors of WDR5 protein-protein binding” (PROPELLON THERAPEUTICS INC., priority 2016, dated 2022):

Biological target: WDR5 (Homo sapiens (Human), UniProt P61964)
Assay: Surface Plasmon Resonance (SPR) assay, KD and residence time
Type: binding
Conditions: surface plasmon resonance (SPR) assay; read-out: WDR5 binding affinity (KD)

| Kd | Compound |
| --- | --- |
| 2.15 nM | CC1CN(c2cc(F)c(-c3cccc(CN(C)C4COC4)c3)cc2NC(=O)c2c[nH]c(=O)cc2C(F)(F)F)CCN1C (stereo in doubt) [Example 214, N-[4-fluoro-5-[3-[[methyl(oxetan-3-yl)amino]methyl]phenyl]-2-[(3R)-3,4-dimethylpiperazin-1-yl]phenyl]-6-oxo-4-(trifluoromethyl)-1H-pyridine-3-carboxamide] |
| 10.3 nM | C[C@@H]1CN(c2cc(F)c(-c3cnc4c(c3)CCN4)cc2NC(=O)c2c[nH]c(=O)cc2C(F)(F)F)C[C@H](C)N1C [Example 172, N-[5-(2,3-dihydro-1H-pyrrolo[2,3-b]pyridin-5-yl)-4-fluoro-2-[(3R,5S)-3,4,5-trimethylpiperazin-1-yl]phenyl]-6-oxo-4-(trifluoromethyl)-1H-pyridine-3-carboxamide] |
| 1260 nM | CC1CN(c2cc(F)c(-c3cnc(N4CCOCC4)nc3)cc2NC(=O)c2ccn(C)n2)CCN1C (stereo in doubt) [Example 192, N-[4-fluoro-5-(2-morpholin-4-ylpyrimidin-5-yl)-2-[(3R)-3,4-dimethylpiperazin-1-yl]phenyl]-1-methylpyrazole-3-carboxamide] |
| 63.1 nM | C[C@@H]1CN(c2cc(F)c(-c3cnc(N4CCOCC4)nc3)cc2NC(=O)c2cc(C(F)(F)F)[nH]n2)C[C@H](C)N1C [Example 321, N-[4-fluoro-5-(2-morpholin-4-ylpyrimidin-5-yl)-2-[(3R,5S)-3,4,5-trimethylpiperazin-1-yl]phenyl]-5-(trifluoromethyl)-1H-pyrazole-3-carboxamide] |
| 6.91 nM | C[C@@H]1CN(c2cc(F)c(-c3cnc(N4CCOCC4)nc3)cc2NC(=O)c2cccc(Cl)c2Cl)C[C@H](C)N1C [Example 213, 2,3-dichloro-N-[4-fluoro-5-(2-morpholin-4-ylpyrimidin-5-yl)-2-[(3R,5S)-3,4,5-trimethylpiperazin-1-yl]phenyl]benzamide] |
| 2.43 nM | C[C@@H]1CN(c2cc(F)c(-c3ccc(C#N)nc3)cc2NC(=O)c2c[nH]c(=O)cc2C(F)(F)F)C[C@H](C)N1C [Example 131, N-[5-(6-cyanopyridin-3-yl)-4-fluoro-2-[(3R,5S)-3,4,5-trimethylpiperazin-1-yl]phenyl]-6-oxo-4-(trifluoromethyl)-1H-pyridine-3-carboxamide] |
| 137 nM | C[C@@H]1CN(c2cc(F)c(-c3cnc(N4CCOCC4)nc3)cc2NC(=O)c2ccc(F)cc2)C[C@H](C)N1C [Example 107, 4-fluoro-N-[4-fluoro-5-(2-morpholin-4-ylpyrimidin-5-yl)-2-[(3R,5S)-3,4,5-trimethylpiperazin-1-yl]phenyl]benzamide] |
| 1.07 nM | CC1CN(c2cc(F)c(-c3ccc(N4CCOCC4)nc3)cc2NC(=O)c2c[nH]c(=O)cc2C(F)(F)F)CCN1C (stereo in doubt) [Example 239, N-[4-fluoro-5-(6-morpholin-4-ylpyridin-3-yl)-2-[(3R)-3,4-dimethylpiperazin-1-yl]phenyl]-6-oxo-4-(trifluoromethyl)-1H-pyridine-3-carboxamide] |
| 24.1 nM | C[C@@H]1CN(c2cc(F)c(-c3cnc(N4CCOCC4)nc3)cc2NC(=O)c2cc(F)ccc2C(F)(F)F)C[C@H](C)N1C [Example 88, 5-fluoro-N-[4-fluoro-5-(2-morpholin-4-ylpyrimidin-5-yl)-2-[(3R,5S)-3,4,5-trimethylpiperazin-1-yl]phenyl]-2-(trifluoromethyl)benzamide] |
| 4.21 nM | C[C@@H]1CN(c2cc(F)c(-c3cnc(N4CCOCC4)nc3)cc2NC(=O)c2cc(O)cc(F)c2F)C[C@H](C)N1C [Example 291, 2,3-difluoro-N-[4-fluoro-5-(2-morpholin-4-ylpyrimidin-5-yl)-2-[(3R,5S)-3,4,5-trimethylpiperazin-1-yl]phenyl]-5-hydroxybenzamide] |

Same assay, conditions: surface plasmon resonance (SPR); read-out: WDR5 binding affinity (KD)

| Kd | Compound |
| --- | --- |
| 4.23 nM | C[C@@H]1CN(c2cc(F)c(-c3ccc(C(=O)NCC4CC4)c(F)c3)cc2NC(=O)c2c[nH]c(=O)cc2C(F)(F)F)C[C@H](C)N1C [Example 735, N-[5-[4-(cyclopropylmethylcarbamoyl)-3-fluorophenyl]-4-fluoro-2-[(3R,5S)-3,4,5-trimethylpiperazin-1-yl]phenyl]-6-oxo-4-(trifluoromethyl)-H-pyridine-3-carboxamide] |
| 20.4 nM | C[C@@H]1CN(c2cc(F)c(-c3cccc4scnc34)cc2NC(=O)c2cn(C)c(=O)cc2C(F)F)C[C@H](C)N1C [Example 682, N-[5-(1,3-benzothiazol-4-yl)-4-fluoro-2-[(3R,5S)-3,4,5-trimethylpiperazin-1-yl]phenyl]-4-(difluoromethyl)-1-methyl-6-oxopyridine-3-carboxamide] |
| 3.11 nM | C[C@@H]1CN(c2cc(F)c(C3=CCCN(C(=O)OC4(C)CCC4)CC3)cc2NC(=O)c2c[nH]c(=O)cc2C(F)F)C[C@H](C)N1C [Example 729, (1-methylcyclobutyl) 4-[5-[[4-(difluoromethyl)-6-oxo-1H-pyridine-3-carbonyl]amino]-2-fluoro-4-[(3R,5S)-3,4,5-trimethylpiperazin-1-yl]phenyl]-2,3,6,7-tetrahydroazepine-1-carboxylate] |
| 5.42 nM | C[C@@H]1CN(c2cc(F)c(-c3csc(C(=O)NC4CCCCC4)n3)cc2NC(=O)c2cn(C)c(=O)cc2C(F)(F)F)C[C@H](C)N1C [Example 525, N-cyclohexyl-4-[2-fluoro-5-[[1-methyl-6-oxo-4-(trifluoromethyl)pyridine-3-carbonyl]amino]-4-[(3R,5S)-3,4,5-trimethylpiperazin-1-yl]phenyl]-1,3-thiazole-2-carboxamide] |
| 2.72 nM | C[C@@H]1CN(c2cc(F)c(C3=CCCN(C(=O)OC4CC(F)(F)C4)C3)cc2NC(=O)c2c[nH]c(=O)cc2C(F)F)C[C@H](C)N1C [Example 704, (3,3-difluorocyclobutyl) 5-[5-[[4-(difluoromethyl)-6-oxo-1H-pyridine-3-carbonyl]amino]-2-fluoro-4-[(3R,5S)-3,4,5-trimethylpiperazin-1-yl]phenyl]-3,6-dihydro-2H-pyridine-1-carboxylate] |
| 1.41 nM | COc1cnc(N2CCC=C(c3cc(NC(=O)c4c[nH]c(=O)cc4C(F)F)c(N4C[C@@H](C)N(C)[C@@H](C)C4)cc3F)C2)nc1 [Example 645, 4-(difluoromethyl)-N-[4-fluoro-5-[1-(5-methoxypyrimidin-2-yl)-3,6-dihydro-2H-pyridin-5-yl]-2-[(3R,5S)-3,4,5-trimethylpiperazin-1-yl]phenyl]-6-oxo-1H-pyridine-3-carboxamide] |
| 8.27 nM | C[C@@H]1CN(c2cc(F)c(-c3ncc(CN4CCOCC4)s3)cc2NC(=O)c2c[nH]c(=O)cc2C(F)(F)F)C[C@H](C)N1C [Example 751, N-[4-fluoro-5-[5-(morpholin-4-ylmethyl)-1,3-thiazol-2-yl]-2-[(3R,5S)-3,4,5-trimethylpiperazin-1-yl]phenyl]-6-oxo-4-(trifluoromethyl)-1H-pyridine-3-carboxamide] |
| 4.97 nM | C[C@H]1CN(c2cc(F)c(C3=CCN(c4cnc(C#N)nc4)CC3)cc2NC(=O)c2c[nH]c(=O)cc2C(F)F)CCN1C [Example 639, (S)—N-(5-(1-(2-cyanopyrimidin-5-yl)-1,2,3,6-tetrahydropyridin-4-yl)-2-(3,4-dimethylpiperazin-1-yl)-4-fluorophenyl)-4-(difluoromethyl)-6-oxo-1,6-dihydropyridine-3-carboxamide] |
| 3.78 nM | CC1CN(c2cc(F)c(-c3cnc(N4CCOC(C)(C)C4)nc3)cc2NC(=O)c2ccc(F)cc2C(F)(F)F)CCN1C (stereo in doubt) [Example 558, N-[5-[2-(2,2-dimethylmorpholin-4-yl)pyrimidin-5-yl]-4-fluoro-2-[(3R)-3,4-dimethylpiperazin-1-yl]phenyl]-4-fluoro-2-(trifluoromethyl)benzamide] |
| 5.22 nM | C[C@@H]1CN(c2nccc(-c3cc(NC(=O)c4cn(C)c(=O)cc4C(F)(F)F)c(N4C[C@@H](C)N(C)[C@@H](C)C4)cc3F)n2)C[C@H](C)O1 [Example 743, N-[4-fluoro-5-[2-[(2R,6S)-2,6-dimethylmorpholin-4-yl]pyrimidin-4-yl]-2-[(3R,5S)-3,4,5-trimethylpiperazin-1-yl]phenyl]-1-methyl-6-oxo-4-(trifluoromethyl)pyridine-3-carboxamide] |
| 2.26 nM | C[C@@H]1CN(c2cc(F)c(C3=CCN(C(=O)OC4CC(F)(F)C4)C3)cc2NC(=O)c2c[nH]c(=O)cc2C(F)F)C[C@H](C)N1C [Example 637, 3,3-Difluorocyclobutyl 3-(5-(4-(difluoromethyl)-6-oxo-1,6-dihydropyridine-3-carboxamido)-2-fluoro-4-((3S,5R)-3,4,5-trimethylpiperazin-1-yl)phenyl)-2,5-dihydro-1H-pyrrole-1-carboxylate] |
| 2.16 nM | CC1CN(c2cc(F)c(-c3ccc(N4CCNCC4)nc3)cc2NC(=O)c2ccc(F)cc2C(F)(F)F)CCN1C (stereo in doubt) [Example 530, 4-fluoro-N-[4-fluoro-5-(6-piperazin-1-ylpyridin-3-yl)-2-[(3R)-3,4-dimethylpiperazin-1-yl]phenyl]-2-(trifluoromethyl)benzamide] |
| 4.85 nM | C[C@@H]1CN(c2cc(F)c(-c3ccc(C(=O)NC4CCCCC4(C)C)c(F)c3)cc2NC(=O)c2c[nH]c(=O)cc2C(F)(F)F)C[C@H](C)N1C (stereo partly drawn) [Example 747, N-[5-[4-[(2,2-dimethylcyclohexyl)carbamoyl]-3-fluorophenyl]-4-fluoro-2-[(3R,5S)-3,4,5-trimethylpiperazin-1-yl]phenyl]-6-oxo-4-(trifluoromethyl)-1H-pyridine-3-carboxamide] |
| 15.5 nM | CN(CC1CC1)[C@@H]1CCN(c2cc(F)c(-c3cnc(N4CCOCC4)nc3)cc2NC(=O)c2c[nH]c(=O)cc2C(F)(F)F)C1 [Example 586, N-[4-fluoro-5-(2-morpholin-4-ylpyrimidin-5-yl)-2-[(3R)-3-[cyclopropylmethyl(methyl)amino]pyrrolidin-1-yl]phenyl]-6-oxo-4-(trifluoromethyl)-1H-pyridine-3-carboxamide] |

| Compound | Kd |
| --- | --- |
| N-[5-[1-(5-cyano-1,3-thiazol-2-yl)-3,6-dihydro-2H-pyridin-4-yl]-4-fluoro-2-[(3R)-3,4-dimethylpiperazin-1-yl]phenyl]-4-fluoro-2-(trifluoromethyl)benzamide [Example 690] | 4.17 nM |
